Measurements as given in ChEMBL document CHEMBL3046008, “Phenolics and their antifungal role in grapevine wood decay: focus on the Botryosphaeriaceae family” (J Agric Food Chem, 2012).
pIC50: −log10 of the molar value. The source made the active and inactive calls. The calls are words filed in the database; no cut-off is given here.

Experiments:
Neofusicoccum parvum [1] = assay: Antifungal activity against Neofusicoccum parvum assessed as growth inhibition at 500 uM measured after 1 to 10 days relative to control; format: functional
Diplodia seriata [2] = assay: Antifungal activity against Diplodia seriata assessed as growth inhibition at 500 uM measured after 1 to 10 days relative to control; format: functional
Phaeoacremonium minimum = assay: Antifungal activity against Togninia minima SO21 assessed as susceptibility at 500 uM measured after 1 to 10 days; format: functional, organism-based
Neofusicoccum parvum [3] = assay: Antifungal activity against Neofusicoccum parvum assessed as growth inhibition measured after 1 to 10 days; format: functional, organism-based
Diplodia seriata [4] = assay: Antifungal activity against Diplodia seriata assessed as mycelium denser around the initial plug and colonizing measured after 2 days by macroscopic analysis; format: functional, organism-based
Diplodia seriata [5] = assay: Antifungal activity against Diplodia seriata assessed as growth inhibition measured after 1 to 10 days; format: functional, organism-based
Diplodia seriata [6] = assay: Antifungal activity against Diplodia seriata assessed as mycelium seemed to be halted measured after 2 days environmental scanning electron microscopy; format: functional, organism-based
Eutypa lata [7] = assay: Antifungal activity against Eutypa lata BX1-10 assessed as growth inhibition measured after 1 to 10 days; format: functional, organism-based
Eutypa lata [8] = assay: Antifungal activity against Eutypa lata BX1-10 assessed as growth inhibition at 500 uM measured after 1 to 10 days relative to control; format: functional
[9] = tested on: Phaeomoniella chlamydospora; assay: Antifungal activity against Phaeomoniella chlamydospora assessed as growth inhibition at 500 uM measured after 1 to 10 days relative to control; format: functional
Eutypa lata [10] = assay: Induction of Eutypa lata BX1-10 growth at 500 uM; format: functional, organism-based

SMILES	growth inhibition (GI) (Neofusicoccum parvum [1])	growth inhibition (GI) (Diplodia seriata [2])	Activity (Phaeoacremonium minimum)	also measured
Oc1ccc([C@H]2Oc3cc(O)cc(/C=C/c4ccc5c(c4)[C@@H](c4cc(O)cc6c4[C@H](c4cc(O)cc(O)c4)[C@@H](c4ccc(O)cc4)O6)[C@H](c4ccc(O)cc4)O5)c3[C@@H]2c2cc(O)cc(O)c2)cc1	Active	Active	inactive	–
COc1cc(C(=O)O)ccc1O	–	–	inactive	–
O=C(O)/C=C/c1ccc(O)c(O)c1	–	–	inactive	–
COc1cc(C(=O)O)cc(OC)c1O	–	–	inactive	–
Oc1cc(O)c2c(c1)O[C@H](c1ccc(O)c(O)c1)[C@@H](O)C2	–	–	inactive	–
COc1cc(/C=C/c2ccc(O)cc2)cc(OC)c1 [PTEROSTILBENE]	Active	Active	inactive	pIC50 (Neofusicoccum parvum [3]): 3.60; Activity (Diplodia seriata [4]): Active; pIC50 (Diplodia seriata [5]): 3.79; Activity (Diplodia seriata [6]): Active; pIC50 (Eutypa lata [7]): 3.60
O=C(/C=C/c1ccc(O)c(O)c1)O[C@@H]1C[C@](O)(C(=O)O)C[C@@H](O)[C@H]1O	–	–	inactive	–
Oc1cc(O)c2c(c1)O[C@H](c1ccc(O)c(O)c1)[C@H](O)C2	–	–	inactive	–
COc1cc(/C=C/C(=O)O)ccc1O [FERULATE]	–	–	inactive	fold change (FC) (Eutypa lata [8]): 2.2; fold change (FC) (Neofusicoccum parvum [1]): 1.5; fold change (FC) (Diplodia seriata [2]): 1.6; fold change (FC) [9]: 1.4
Oc1ccc([C@H]2c3c(O)cc(O)cc3[C@H]3c4c(cc(O)cc4[C@@H]2c2cc(/C=C/c4cc(O)cc5c4[C@H](c4cc(O)cc(O)c4)[C@@H](c4ccc(O)cc4)O5)ccc2O)O[C@@H]3c2ccc(O)cc2)cc1	Active	Active	inactive	–
O=C(O[C@@H]1Cc2c(O)cc(O)cc2O[C@@H]1c1ccc(O)c(O)c1)c1cc(O)c(O)c(O)c1	–	–	inactive	–
Oc1cc(O)cc(/C=C/c2ccc(O)c(O)c2)c1 [PICEATANNOL]	Active	Active	inactive	pIC50 (Diplodia seriata [5]): 3.52
Oc1ccc([C@H]2c3c(O)cc(O)cc3[C@H]3c4c(cc(O)cc4[C@@H]2O)O[C@@H]3c2ccc(O)cc2)cc1	Active	Active	inactive	–
O=c1c(O)c(-c2ccc(O)cc2)oc2cc(O)cc(O)c12	–	–	inactive	growth inhibition (GI) (Eutypa lata [8]): inactive
O=C(O)c1cc(O)c(O)c(O)c1	–	–	inactive	–
Oc1ccc(/C=C/c2cc(O)cc3c2[C@@H](c2cc(O)cc(O)c2)[C@H](c2ccc(O)cc2)O3)cc1 [EPSILON-VINIFERIN]	Active	Active	inactive	pIC50 (Diplodia seriata [5]): 3.59
OC[C@H]1O[C@@H](Oc2cc(O)cc(/C=C/c3ccc(O)cc3)c2)[C@H](O)[C@@H](O)[C@@H]1O	Active	Active	inactive	–
COc1cc(/C=C/C(=O)O)cc(OC)c1O	–	–	inactive	–
O=C(O)/C=C/c1ccc(O)cc1	–	–	inactive	–
Oc1ccc(/C=C/c2cc(O)cc(O)c2)cc1 [RESVERATROL]	–	–	inactive	fold change (FC) (Eutypa lata [8]): 1.7; fold change (FC) (Neofusicoccum parvum [1]): 1.1; fold change (FC) (Diplodia seriata [2]): 1.6
O=c1c(O)c(-c2ccc(O)c(O)c2)oc2cc(O)cc(O)c12	–	–	inactive	Activity (Eutypa lata [10]): Active
